Reference: ChEMBL document CHEMBL4715762, “Discovery of anabaenopeptin 679 from freshwater algal bloom material: Insights into the structure-activity relationship of anabaenopeptin protease inhibitors” (Bioorg Med Chem Lett, 2016)
The source made the active and inactive calls. No cut-off for these calls is given here. Starred links: 1 amine or outer side, 2 acyl side, 3 side chain; linkers in the order of their positions; H or OH if unused. Positions of bridges follow the written chain, without caps; N, C: chain ends. Non-standard residues stand in square brackets, D forms with d. Residues, ends and D or L forms follow the SMILES beside them. NMehTyr = CN[C@@H](CCc1ccc(O)cc1)C(=O)O; X1 = NC(=O)N[C@H](CCCCN[*:1])C(=O)[*:2]; hTyr = N[C@@H](CCc1ccc(O)cc1)C(=O)O; NMeA = CN[C@@H](C)C(=O)O; CO = O=C([*:1])[*:2]

How the values were obtained:
[1] = biological target: T1, Carboxypeptidase A1 (Homo sapiens, UniProt P15085); experiment: Inhibition of carboxypeptidase A (unknown origin) assessed as reduction in degradation of N-(4-methoxyphenylazoformyl)-Phe-OH using N-(4-methoxyphenylazoformyl)-Phe-OH as substrate
T1 sequence (P15085 whole entry): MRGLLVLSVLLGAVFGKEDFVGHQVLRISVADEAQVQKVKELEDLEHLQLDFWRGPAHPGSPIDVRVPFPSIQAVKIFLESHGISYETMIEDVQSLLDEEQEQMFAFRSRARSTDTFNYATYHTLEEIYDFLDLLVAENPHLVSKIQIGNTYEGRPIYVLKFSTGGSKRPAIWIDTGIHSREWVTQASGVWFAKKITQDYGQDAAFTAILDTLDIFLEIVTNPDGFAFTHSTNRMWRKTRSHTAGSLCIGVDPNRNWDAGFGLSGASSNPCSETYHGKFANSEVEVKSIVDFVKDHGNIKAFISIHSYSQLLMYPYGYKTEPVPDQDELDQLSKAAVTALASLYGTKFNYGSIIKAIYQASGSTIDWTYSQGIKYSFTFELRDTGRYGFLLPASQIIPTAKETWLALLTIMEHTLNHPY

[2] = biological target: T1, Carboxypeptidase A1; experiment: Inhibition of carboxypeptidase A (unknown origin) assessed as reduction in hydrolysis of hippuryl-L-phenylalanine using hippuryl-L-phenylalanine as substrate
[3] = biological target: T2, Carboxypeptidase A1 (Bos taurus, UniProt P00730); experiment: Inhibition of carboxypeptidase A in bovine pancreas assessed as reduction in hydrolysis of hippuryl-L-phenylalanine using hippuryl-L-phenylalanine as substrate measured after 2 hrs; assay type: tissue-based
T2 sequence (P00730 whole entry): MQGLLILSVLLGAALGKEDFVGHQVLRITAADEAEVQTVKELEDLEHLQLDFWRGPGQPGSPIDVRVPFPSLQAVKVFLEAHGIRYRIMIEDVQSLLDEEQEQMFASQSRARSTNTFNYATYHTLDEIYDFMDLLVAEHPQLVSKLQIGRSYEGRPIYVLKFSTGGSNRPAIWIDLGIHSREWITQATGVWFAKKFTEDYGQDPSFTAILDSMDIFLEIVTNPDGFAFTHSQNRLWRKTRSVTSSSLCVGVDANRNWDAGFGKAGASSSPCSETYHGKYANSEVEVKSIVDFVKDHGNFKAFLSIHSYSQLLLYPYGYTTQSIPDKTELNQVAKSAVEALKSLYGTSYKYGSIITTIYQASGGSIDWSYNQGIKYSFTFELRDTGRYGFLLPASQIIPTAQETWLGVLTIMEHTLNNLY

[4] = biological target: T1, Carboxypeptidase A1; experiment: Inhibition of carboxypeptidase A (unknown origin)
[5] = biological target: T3, Carboxypeptidase A1 (Homo sapiens) (UniProt P15085); experiment: Inhibition of carboxypeptidase A (unknown origin) assessed as reduction in degradation of N-(4-methoxyphenylazoformyl)-Phe-OH at > 10 uM using N-(4-methoxyphenylazoformyl)-Phe-OH as substrate; conditions: dose microM >10
T3 sequence (whole entry): T1 sequence (P15085 whole entry)

IC50 [1] [µM]	SMILES	other results
6.74	CC(C)[C@@H]1NC(=O)[C@H](NC(N)=O)CCCCNC(=O)[C@H](Cc2ccccc2)NC(=O)[C@H](C)N(C)C(=O)[C@H](CCc2ccc(O)cc2)NC1=O (cyclo(F[X1]V[hTyr][NMeA]))	
	CC[C@H](C)[C@@H]1NC(=O)[C@H](NC(=O)N[C@@H](Cc2ccc(O)cc2)C(=O)O)CCCCNC(=O)[C@H]([C@@H](C)CC)NC(=O)[C@H](CCc2ccc(O)cc2)N(C)C(=O)[C@H](CCc2ccc(O)cc2)NC1=O [ANABAENOPEPTIN G] ({Tyr-CO}-[dK]I[hTyr][NMehTyr]I; lactam 1-C)	IC50 [2]: 0.002 µM
	CC[C@H](C)[C@H](NC(=O)N[C@@H]1CCCCNC(=O)[C@H]([C@@H](C)CC)NC(=O)[C@H](CCc2ccc(O)cc2)N(C)C(=O)[C@H](CCc2ccc(O)cc2)NC(=O)[C@H](C(C)C)NC1=O)C(=O)O [ANABAENOPEPTIN T] ({Ile-CO}-[dK]V[hTyr][NMehTyr]I; lactam 1-C)	IC50 [3]: 2.3 µM
> 24	CC[C@H](C)[C@@H]1NC(=O)[C@H](NC(=O)N[C@@H](CCCNC(=N)N)C(=O)O)CCCCNC(=O)[C@H](Cc2ccccc2)NC(=O)[C@H](C)N(C)C(=O)[C@H](CCc2ccc(O)cc2)NC1=O [ANABAENOPEPTIN F] ({Arg-CO}-[dK]I[hTyr][NMeA]F; lactam 1-C)	
10.2	CC[C@H](C)[C@@H]1NC(=O)[C@H](NC(=O)N[C@@H](CCCNC(=N)N)C(=O)O)CCCCNC(=O)[C@H]([C@@H](C)CC)NC(=O)[C@H](CCc2ccc(O)cc2)N(C)C(=O)[C@H](CCc2ccc(O)cc2)NC1=O [ANABAENOPEPTIN H] ({Arg-CO}-[dK]I[hTyr][NMehTyr]I; lactam 1-C)	
> 24	CC(C)[C@@H]1NC(=O)[C@H](NC(=O)N[C@@H](CCCNC(=N)N)C(=O)O)CCCCNC(=O)[C@H](Cc2ccccc2)NC(=O)[C@H](C)N(C)C(=O)[C@H](CCc2ccc(O)cc2)NC1=O [ANABAENOPEPTIN B] ({Arg-CO}-[dK]V[hTyr][NMeA]F; lactam 1-C)	
> 11	CC[C@H](C)[C@@H]1NC(=O)[C@H](CCc2ccc(O)cc2)N(C)C(=O)[C@H](CCc2ccc(O)cc2)NC(=O)[C@H](C(C)C)NC(=O)[C@H](NC(=O)N[C@@H](CCCNC(=N)N)C(=O)O)CCCCNC1=O [ANABAENOPEPTIN 908] ({Arg-CO}-[dK]V[hTyr][NMehTyr]I; lactam 1-C)	IC50 [4]: > 22 µM; inhibition [5]: Active
